Measurements as given in publication doi:10.1101/2024.08.19.608619, “Discovery of potent SARS-CoV-2 nsp3 macrodomain inhibitors uncovers lack of translation to cellular antiviral response” (bioRxiv, 2024).
pEC50, pIC50: −log10 of the molar value. Values joined by “and” are separate entries in the source; they are usually repeats but may differ in a detail not shown here. Identical values can stand only once. Like-named read-outs stand apart in the source and are kept apart here.

Legend:
[1] = in vitro; details: human; for CC50 at 24 h: HeLa-ACE2 cells (uninfected)
[2] = biological target: SARS-CoV-2 nsp3-mac1 (Severe acute respiratory syndrome coronavirus 2, UniProt P0DTD1); experiment: biochemical
[3] = test system: iPSC pneumocytes; experiment: iPSC pneumocytes cytotoxicity; type: cell-based; details: for perc_max_measured: highest measured response of the dose series; for perc_min_measured: lowest measured response of the dose series
Text: (§1) Supplement media-1.zip/Cytotoxicity.csv, table | column: cc10; cc50; perc_min_measured; perc_max_measured

[4] = test system: SARS-CoV-2; experiment: Antiviral effect in iPSC-derived pneumocyte system; type: cell-based; details: iPSC pneumocytes SARS-CoV-2 antiviral effect; for perc_max_measured: maximum measured response of dose series; for perc_min_measured: minimum measured response of dose series
[5] = test system: MDR1; experiment: Permeability Papp (AB) MDR1/MDCKII; details: dog; for Papp A→B: A to B; for Papp B→A: B to A
[6] = test system: HeLa-ACE2 cells; details: read-out: 50.0, 1440 min
[7] = Vero E6/TMPRSS2 cytotoxicity with P-gp inhibitor; type: cell-based; details: African green monkey, Vero E6/TMPRSS2 cells, with P-gp inhibitor (name and concentration not stated)
Text: as §1

[8] = biological target: Nsp3-mac1 (Severe acute respiratory syndrome coronavirus 2, UniProt P0DTD1); experiment: ADPr hydrolase assay (LC-MS/MS); type: biochemical, SARS-CoV-2; details: Nsp3-mac1 200 nM, αNAD+ 8 μM
Experimental: ADPr hydrolase activity assay was conducted in 96-well plate with pre-dispensed compounds in 8-point dose response starting from 4 μM (control wells were backfilled with DMSO). […] Nsp3-mac1 200 nM in final assay concentration was added to all wells besides “NAD+ alone” well. The plate was centrifuged at 1,500 rpm for 1 min, and then Incubated at room temperature for 15 min. After incubation, αNAD+ in final concentration of 8 μM were added to each well, and the plate was centrifuged again for 1 min. Then, the plate was incubated under shaking at room temperature for 2.45 h, followed by freezing at −80°C until LC-MS/MS analysis.
A 30-μl sample aliquot was mixed with 90 μl of methanol and 1μl of 50 μM 15N5-AMP (an internal standard). The mix was shaken for 10 min, then centrifuged (~21,000 g) for 5 min to precipitate the protein. […]
Mass detection was carried out using electrospray ionization in the positive mode. […] Analytes were detected using multiple reaction monitoring (MRM, m/z) with the following precursor and fragment masses at selected collision energy (eV, indicated in brackets): 560 > 136 (34) and 560 > 348 ([16]) for ADPR, 664 > 524 ([15]) and 664 > 541.7 ([15]) for αNAD+, 353.1 > 97 ([28]) and 353.1 > 141 ([20]) for […] (IS) m/z. […]

[9] = biological target: hERG (Homo sapiens, UniProt Q12809); experiment: In vitro CEREP profiling, Potassium Channel hERG (human)- [3H] Dofetilide; type: binding; parameters: purchased Eurofins Cerep (SafetyScreen44), recognised from the panel format; details: hERG potassium channel binding assay, probe [3H] Dofetilide, test compound concentration 10 uM, read-out: perc_inhibition, % inhibition of the binding of a ligand specific for each target
Chain of hERG (Q12809 whole entry): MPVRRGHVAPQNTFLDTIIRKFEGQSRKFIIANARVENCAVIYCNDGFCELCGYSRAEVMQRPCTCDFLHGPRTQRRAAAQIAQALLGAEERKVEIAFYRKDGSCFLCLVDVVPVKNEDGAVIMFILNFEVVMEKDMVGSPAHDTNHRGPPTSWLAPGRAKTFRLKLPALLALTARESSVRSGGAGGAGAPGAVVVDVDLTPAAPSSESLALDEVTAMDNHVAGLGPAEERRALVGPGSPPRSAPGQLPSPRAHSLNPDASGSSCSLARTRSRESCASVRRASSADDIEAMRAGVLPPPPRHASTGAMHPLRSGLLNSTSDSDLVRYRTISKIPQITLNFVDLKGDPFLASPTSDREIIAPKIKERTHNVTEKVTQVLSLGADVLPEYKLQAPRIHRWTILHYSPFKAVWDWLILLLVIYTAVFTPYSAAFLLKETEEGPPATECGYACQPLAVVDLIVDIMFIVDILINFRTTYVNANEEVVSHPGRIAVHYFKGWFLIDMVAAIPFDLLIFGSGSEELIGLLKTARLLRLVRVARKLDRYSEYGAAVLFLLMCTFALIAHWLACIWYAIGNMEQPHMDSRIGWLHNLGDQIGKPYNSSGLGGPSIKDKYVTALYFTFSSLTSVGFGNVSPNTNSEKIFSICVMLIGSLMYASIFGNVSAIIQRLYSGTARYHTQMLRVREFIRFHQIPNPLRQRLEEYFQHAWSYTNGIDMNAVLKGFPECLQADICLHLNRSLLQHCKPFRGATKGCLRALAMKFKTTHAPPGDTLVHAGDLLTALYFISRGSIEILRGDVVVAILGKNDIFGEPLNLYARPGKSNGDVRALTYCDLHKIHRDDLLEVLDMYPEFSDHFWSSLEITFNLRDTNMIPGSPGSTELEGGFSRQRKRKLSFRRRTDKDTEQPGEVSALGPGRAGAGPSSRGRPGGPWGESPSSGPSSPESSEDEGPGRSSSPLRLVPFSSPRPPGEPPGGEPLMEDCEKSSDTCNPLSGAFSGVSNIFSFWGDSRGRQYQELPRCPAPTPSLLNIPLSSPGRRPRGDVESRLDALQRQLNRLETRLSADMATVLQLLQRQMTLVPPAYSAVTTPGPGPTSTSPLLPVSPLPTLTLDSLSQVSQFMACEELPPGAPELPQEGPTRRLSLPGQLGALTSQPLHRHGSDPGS
Text: (§2) Supplement media-1.zip/Safety_Panel_Profile.csv, table | column: perc_inhibition

[10] = biological target: T1, 5-HT transporter (h) (Homo sapiens, UniProt P31645); experiment: In vitro CEREP profiling, 5-HT transporter (h) (antagonist radioligand); type: binding; details: test compound concentration 10 uM
T1 construct: purchased Eurofins Cerep (SafetyScreen44), recognised from the panel format
T1 sequence (P31645 whole entry): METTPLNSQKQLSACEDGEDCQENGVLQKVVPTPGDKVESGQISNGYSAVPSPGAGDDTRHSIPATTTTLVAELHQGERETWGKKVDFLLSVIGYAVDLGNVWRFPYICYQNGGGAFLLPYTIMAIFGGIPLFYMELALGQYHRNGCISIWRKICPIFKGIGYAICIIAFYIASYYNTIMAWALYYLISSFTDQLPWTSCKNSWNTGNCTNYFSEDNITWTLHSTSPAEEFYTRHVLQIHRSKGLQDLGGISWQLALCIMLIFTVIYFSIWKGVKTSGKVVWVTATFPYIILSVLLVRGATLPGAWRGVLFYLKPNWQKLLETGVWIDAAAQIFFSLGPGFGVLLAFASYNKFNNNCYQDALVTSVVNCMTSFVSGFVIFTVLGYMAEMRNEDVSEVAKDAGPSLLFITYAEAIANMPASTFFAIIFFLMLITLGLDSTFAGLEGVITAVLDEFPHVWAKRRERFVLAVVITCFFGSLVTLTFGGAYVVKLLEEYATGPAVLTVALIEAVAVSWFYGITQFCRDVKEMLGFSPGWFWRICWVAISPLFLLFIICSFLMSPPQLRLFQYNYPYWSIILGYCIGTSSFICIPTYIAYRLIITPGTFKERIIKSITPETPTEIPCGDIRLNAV
Text: as §2

[11] = protocol iPSC pneumocytes cytotoxicity
[12] = Severe acute respiratory syndrome coronavirus 2
[13] = MDCK-MDR1, papp_a_to_b_mean, In vitro MDR1-MDCKII permeability, mean
[14] = MDCK-MDR1, efflux_ratio, In vitro MDR1-MDCKII permeability, no inhibitor
[15] = MDCK-MDR1, papp_a_to_b_mean, In vitro MDR1-MDCKII permeability, no inhibitor
[16] = MDCK-MDR1, papp_b_to_a_mean, In vitro MDR1-MDCKII permeability, no inhibitor

## CC(C)C(Nc1ncnc2[nH]ccc12)c1ccc2c(c1)S(=O)(=O)CCC2 (centres unmarked) [ASAP-0008327]
[1]
  CC50: > 50 µM
[2]; IC50, nsp3-mac1 activity, Figures 1-3 and text
  pIC50: 6.85
[3]; [11]
  cc10: > 50.0 µM
  perc_max_measured: 97.729% and 94.012%
  perc_min_measured: 81.556% and 88.355%
[4]; Severe acute respiratory syndrome coronavirus 2, iPSC
  pEC50: < 4.30
[4]; [12]
  EC90: > 50 µM
[4]
  pEC50: 4.52
  perc_max_measured: 138.005% and 187.741%
[5]; [13]
  Papp A→B: 33 nm/s

## CC(C)[C@@H](Nc1ncnc2[nH]c(-c3cnn(C)c3C#N)cc12)c1ccc2c(n1)OCCO2 [ASAP-0008418]
[6]; ASAP-0008327-001=ASAP-0008418-001
  CC50: > 50 µM
[3]; [11]
  perc_max_measured: 95.683%
  perc_min_measured: 63.391%
[4]
  pEC50: 4.89
  EC90: 15.6 µM
  perc_max_measured: 116.418%
  perc_min_measured: 5.314%

## CNCc1cc(-c2cc3c(N[C@@H](c4ccc5c(c4)S(=O)(=O)CCC5)C(C)C)ncnc3[nH]2)co1 [ASAP-0011176]
[3]
  CC50: > 50 µM
  cc10: > 50.0 µM
  perc_max_measured: 97.309%
  perc_min_measured: 86.868%
[4]
  pEC50: 5.48
  EC90: > 50 µM
  perc_max_measured: 92.989%
  perc_min_measured: 2.106%

## CC(C)C(Nc1ncnc2[nH]c(C(=O)NC3CCN(C)C3)cc12)c1ccc2c(c1)S(=O)(=O)CCC2 (centres unmarked) [ASAP-0011198]
[7]
  CC50: > 5 µM
[1]
  CC50 at 24 h: > 20 µM
[2]; HTRF IC50, Figure 6, tool compounds
  pIC50: 7.19
[3]
  perc_max_measured: 99.57%
  perc_min_measured: 87.748%
[8]
  pIC50: 6.38
[4]; [12]
  pEC50: < 4.30
  EC90: > 50 µM
[4]
  perc_max_measured: 101.646%
  perc_min_measured: 52.305%
[5]; [14]
  efflux ratio: 1.3
[5]; [13]
  Papp A→B: 29.4 nm/s
[5]; [15]
  Papp A→B: 0.323 nm/s
[5]; [16]
  Papp B→A: 0.411 nm/s
[5]; MDCK-MDR1, with Cyclosporin A, efflux_ratio_inhibitor, MDR1-MDCKII, with inhibitor Cyclosporin A
  efflux ratio: 1.7
[5]; MDCK-MDR1, with Cyclosporin A, papp_a_to_b_inhibitor_mean, MDR1-MDCKII, with inhibitor Cyclosporin A
  Papp A→B: < 0.1 nm/s
[9]
  inhibition at 10 µM: 7%

## Cn1ncc(-c2cc3c(N[C@@H](c4ccc5c(n4)OCCO5)C(C)(C)C)ncnc3[nH]2)c1C#N [ASAP-0011221]
[6]; ASAP-0008327-001=ASAP-0011221-001, 50.0, 1440 min
  CC50: > 10 µM

## Cc1nn(C)cc1-c1cc2c(NC(c3ccc4c(c3)S(=O)(=O)CCC4)C(C)C)ncnc2[nH]1 (centres unmarked) [ASAP-0011446]
[7]
  CC50: > 5 µM
[1]
  CC50 at 24 h: > 20 µM
[2]; HTRF IC50, Figure 4B, bioactive pure enantiomer
  pIC50: 7.68
[8]
  pIC50: 6.55
[5]; [14]
  efflux ratio: 41.1
[5]; [15]
  Papp A→B: 0.911 nm/s
[5]; [16]
  Papp B→A: 37 nm/s
[5]; MDCK-MDR1, with Verapamil, efflux_ratio_inhibitor, MDR1-MDCKII, with inhibitor Verapamil
  efflux ratio: 21.8
[5]; MDCK-MDR1, with Verapamil, papp_a_to_b_inhibitor_mean, MDR1-MDCKII, with inhibitor Verapamil
  Papp A→B: 2.16 nm/s
[5]; MDCK-MDR1, with Verapamil, papp_b_to_a_inhibitor_mean, MDR1-MDCKII, with inhibitor Verapamil
  Papp B→A: 47 nm/s
[9]
  inhibition at 10 µM: 3%

## C[C@H](C(=O)O)[C@@H](NC(=O)c1ncnc2[nH]ccc12)c1ccc(Br)cc1 [ASAP-0014722]
[10]
  perc_inhibition (% inhibition of the binding of a ligand specific for each target): 0%

## COc1ccc([C@H](Cc2nnn[nH]2)NC(=O)c2ncnc3[nH]ccc23)cc1 [ASAP-0015381]
[10]
  perc_inhibition (% inhibition of the binding of a ligand specific for each target): -1%
